From patent US20260285850A1, “SUBSTITUTED OXAZOLIDINONES AND IMIDAZOLINONES AS HERBICIDES” (FMC CORPORATION, priority 2023, published 2026)

What was measured:
Format in all cases: in vivo
[1] = system: blackgrass (Alopecurus myosuroides); experiment: Test A postemergence application, visual injury rating 0-100
How it was run: (§1)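 Greenhouse test: loam/sand pots received a surfactant-containing formulation, as a preemergence directed soil spray or a postemergence spray on young plants. Injury was judged visually at day 10 relative to untreated controls.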

[2] = system: green foxtail (Setaria viridis); experiment: as above
How it was run: as §1

soybean (Glycine max) [3] = experiment: as above
How it was run: as §1

corn (Zea mays) [4] = experiment: as above
How it was run: as §1

[5] = system: ragweed (common ragweed, Ambrosia artemisiifolia); experiment: as above
How it was run: as §1

kochia (Bassia scoparia) [6] = experiment: as above
How it was run: as §1

[7] = system: wheat (Triticum aestivum); experiment: as above
How it was run: as §1

[8] = system: ryegrass, Italian (italian ryegrass, Lolium multiflorum); experiment: as above
How it was run: as §1

[9] = system: oat, wild (wild oat, Avena fatua); experiment: as above
How it was run: as §1

[10] = system: horseweed (Erigeron canadensis); experiment: as above
How it was run: as §1

[11] = system: barnyardgrass (Echinochloa crus-galli); experiment: as above
How it was run: as §1

[12] = system: galium (catchweed bedstraw, Galium aparine); experiment: as above
How it was run: as §1

[13] = system: blackgrass (Alopecurus myosuroides); experiment: Test A preemergence soil spray, visual injury rating 0-100; settings: 10 days
How it was run: as §1

[14] = system: green foxtail (Setaria viridis); experiment: as above; settings: 10 days
How it was run: as §1

soybean (Glycine max) [15] = experiment: as above; settings: 10 days
How it was run: as §1

corn (Zea mays) [16] = experiment: as above; settings: 10 days
How it was run: as §1

[17] = system: ragweed (common ragweed, Ambrosia artemisiifolia); experiment: as above; settings: 10 days
How it was run: as §1

kochia (Bassia scoparia) [18] = experiment: as above; settings: 10 days
How it was run: as §1

[19] = system: palmer (palmer amaranth, palmer pigweed, Amaranthus palmeri); experiment: as above; settings: 10 days
How it was run: as §1

[20] = system: wheat (Triticum aestivum); experiment: as above; settings: 10 days
How it was run: as §1

[21] = system: ryegrass, Italian (italian ryegrass, Lolium multiflorum); experiment: as above; settings: 10 days
How it was run: as §1

[22] = system: oat, wild (wild oat, Avena fatua); experiment: as above; settings: 10 days
How it was run: as §1

[23] = system: barnyardgrass (Echinochloa crus-galli); experiment: as above; settings: 10 days
How it was run: as §1

[24] = system: sedge, umbrella (small-flower umbrella sedge, Cyperus difformis); experiment: Test B flooded paddy test, visual plant response rating 0-100; settings: 250 g ai/ha, Flood, applied to paddy water, evaluated after 13 days
How it was run: (§2)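 Each species was raised to two leaves before flooding to a 3 cm depth and dosing the water with compound. Injury was assessed by eye after 13 days under greenhouse conditions.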

rice (Oryza sativa) = experiment: as above; settings: 250 g ai/ha, Flood, applied to paddy water, evaluated after 13 days
How it was run: as §2

[25] = system: barnyardgrass (Echinochloa crusgalli); experiment: as above; settings: 250 g ai/ha, Flood, applied to paddy water, evaluated after 13 days
How it was run: as §2

[26] = system: ducksalad (Heteranthera limosa); experiment: as above; settings: 250 g ai/ha, Flood, applied to paddy water, evaluated after 13 days
How it was run: as §2

[27] = 62 g ai/ha, postemergence, 10 days, 0 = no effect, 100 = complete control
[28] = Postemergence, 16 g ai/ha, greenhouse 10 days, 0 no effect, 100 complete control
[29] = 62 g ai/ha, 0 = no effect, 100 = complete control

## COC(=O)C1CC(NC(=O)C2(C(F)(F)F)CN(c3cc(F)cc(F)c3)C(=O)O2)C2CC12 (centres unmarked) [Compound 177]
[1]; [27]
  Blackgrass plant response rating (0-100): 90
[1]; [28]
  Blackgrass plant response rating (0 to 100 scale): 80
[2]; [27]
  Foxtail, Green plant response rating (0-100): 90
[2]; [28]
  Foxtail, Green plant response rating (0 to 100 scale): 30
Soybean (Glycine max) [3]; [27]
  Soybean plant response rating (0-100): 50
Soybean (Glycine max) [3]; [28]
  Soybean plant response rating (0 to 100 scale): 20
Corn (Zea mays) [4]; [27]
  Corn plant response rating (0-100): 90
Corn (Zea mays) [4]; [28]
  Corn plant response rating (0 to 100 scale): 30
[5]; [27]
  Ragweed plant response rating (0-100): 20
[5]; [28]
  Ragweed plant response rating (0 to 100 scale): 0
Kochia (Bassia scoparia) [6]; [27]
  Kochia plant response rating (0-100): 70
Kochia (Bassia scoparia) [6]; [28]
  Kochia plant response rating (0 to 100 scale): 30
[7]; [27]
  Wheat plant response rating (0-100): 90
[7]; [28]
  Wheat plant response rating (0 to 100 scale): 80
[8]; [27]
  Ryegrass, Italian plant response rating (0-100): 80
[8]; [28]
  Ryegrass, Italian plant response rating (0 to 100 scale): 70
[9]; [27]
  Oat, Wild plant response rating (0-100): 90
[9]; [28]
  Oat, Wild plant response rating (0 to 100 scale): 70
[10]; [27]
  Horseweed plant response rating (0-100): 10
[10]; [28]
  Horseweed plant response rating (0 to 100 scale): 0
[11]; [27]
  Barnyardgrass plant response rating (0-100): 80
[11]; [28]
  Barnyardgrass plant response rating (0 to 100 scale): 70
[12]; [27]
  Galium plant response rating (0-100): 80
[12]; [28]
  Galium plant response rating (0 to 100 scale): 90
[13]; 16 g ai/ha, 0 to 100 scale
  Blackgrass plant response rating: 60
[13]; [29]
  Blackgrass plant response rating (0-100): 90
[14]; 16 g ai/ha, 0 to 100 scale
  Foxtail, Green plant response rating: 90
[14]; [29]
  Foxtail, Green plant response rating (0-100): 100
Soybean (Glycine max) [15]; 16 g ai/ha, 0 to 100 scale
  Soybean plant response rating: 0
Soybean (Glycine max) [15]; [29]
  Soybean plant response rating (0-100): 0
Corn (Zea mays) [16]; 16 g ai/ha, 0 to 100 scale
  Corn plant response rating: 10
Corn (Zea mays) [16]; [29]
  Corn plant response rating (0-100): 10
[17]; 16 g ai/ha, 0 to 100 scale
  Ragweed plant response rating: 0
[17]; [29]
  Ragweed plant response rating (0-100): 20
Kochia (Bassia scoparia) [18]; 16 g ai/ha, 0 to 100 scale
  Kochia plant response rating: 0
Kochia (Bassia scoparia) [18]; [29]
  Kochia plant response rating (0-100): 80
[19]; 16 g ai/ha, 0 to 100 scale
  Pigweed, Palmer plant response rating: 90
[19]; [29]
  Pigweed, Palmer plant response rating (0-100): 100
[20]; 16 g ai/ha, 0 to 100 scale
  Wheat plant response rating: 40
[20]; [29]
  Wheat plant response rating (0-100): 100
[21]; 16 g ai/ha, 0 to 100 scale
  Ryegrass, Italian plant response rating: 80
[21]; [29]
  Ryegrass, Italian plant response rating (0-100): 90
[22]; 16 g ai/ha, 0 to 100 scale
  Oat, Wild plant response rating: 0
[22]; [29]
  Oat, Wild plant response rating (0-100): 90
[23]; 16 g ai/ha, 0 to 100 scale
  Barnyardgrass plant response rating: 60
[23]; [29]
  Barnyardgrass plant response rating (0-100): 90
[24]
  Plant response rating, Sedge, Umbrella (0 to 100 scale, 0 is no effect and 100 is complete control): 80
Rice (Oryza sativa)
  Plant response rating, Rice (0 to 100 scale, 0 is no effect and 100 is complete control): 90
[25]
  Plant response rating, Barnyardgrass (0 to 100 scale, 0 is no effect and 100 is complete control): 90
[26]
  Plant response rating, Ducksalad (0 to 100 scale, 0 is no effect and 100 is complete control): 75
